Laboratory results published in PubChem BioAssay AID248 (DTP/NCI, 2004).
Several values for one entry are separate records, joined by “and”; a condition that tells them apart may be missing. Equal values may be shown once. Inconclusive results and toxic doses are left out.

Tested on: L1210 leukemia ip in BDF1 mice, survival T/C
Test: NCI In Vivo Anticancer Drug Screen. Data for tumor model L1210 Leukemia (intraperitoneal) in B6D2F1 (BDF1) mice
Conditions: endpoint: mean survival time, higher = longer survival
Method in brief: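 Each compound was tested against a transplantable tumor grown in mice. The endpoint was survival, with treated animals benchmarked against vehicle controls as a simple ratio.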

[1] = dose: 100.0 mg/kg/injection, schedule: Q01DX009 (ip), vehicle: Klucel (hydroxypropylcellulose) (HPC)
[2] = dose: 50.0 mg/kg/injection, schedule: Q01DX009 (ip), vehicle: saline with Tween-80
[3] = dose: 100.0 mg/kg/injection, schedule: Q01DX009 (ip), vehicle: saline with Tween-80
[4] = dose: 100.0 mg/kg/injection, schedule: Q04DX003 (ip), vehicle: saline with Tween-80
[5] = dose: 200.0 mg/kg/injection, schedule: Q04DX003 (ip), vehicle: saline with Tween-80
[6] = dose: 400.0 mg/kg/injection, schedule: Q04DX003 (ip), vehicle: saline with Tween-80
[7] = dose: 100.0 mg/kg/injection, schedule: Q04DX003 (ip), vehicle: saline
[8] = dose: 200.0 mg/kg/injection, schedule: Q04DX003 (ip), vehicle: saline
[9] = dose: 400.0 mg/kg/injection, schedule: Q04DX003 (ip), vehicle: saline
[10] = dose: 100.0 mg/kg/injection, schedule: Q01DX001 (ip), vehicle: saline
[11] = dose: 200.0 mg/kg/injection, schedule: Q01DX001 (ip), vehicle: saline
[12] = dose: 400.0 mg/kg/injection, schedule: Q01DX001 (ip), vehicle: saline
[13] = dose: 200.0 mg/kg/injection, schedule: Q01DX009 (ip), vehicle: saline with Tween-80

In the case of CC(=O)OC(C)(C)/C=C/C(=O)[C@](C)(O)[C@H]1[C@H](O)C[C@@]2(C)[C@@H]3CC=C4[C@@H](C=C(O)C(=O)C4(C)C)[C@]3(C)C(=O)C[C@]12C, the T/C (dose: 0.4 mg/kg/injection, schedule: Q01DX Z (ip), vehicle: carboxymethylcellulose (CMC)) is reported as 94 % of control, the T/C (dose: 0.8 mg/kg/injection, schedule: Q01DX Z (ip), vehicle: carboxymethylcellulose (CMC)) is reported as 100 % of control and the T/C (dose: 1.6 mg/kg/injection, schedule: Q01DX Z (ip), vehicle: carboxymethylcellulose (CMC)) is reported as 105 % of control. The T/C (dose: 3.2 mg/kg/injection, schedule: Q01DX Z (ip), vehicle: carboxymethylcellulose (CMC)) was 100 % of control.

With Nc1ccc(P(=O)(Nc2cccc(Cl)c2)Nc2cccc(Cl)c2)cc1 the T/C (dose: 100.0 mg/kg/injection, schedule: Q04DX003 (ip), vehicle: acetone) was 108 % of control, the T/C (dose: 200.0 mg/kg/injection, schedule: Q04DX003 (ip), vehicle: acetone) was 92 % of control and the T/C (dose: 400.0 mg/kg/injection, schedule: Q04DX003 (ip), vehicle: acetone) was 92 % of control.

In the case of Cc1c2ccc3ccccc3c2c[n+]2ccccc12, the T/C (dose: 5.0 mg/kg/injection, schedule: Q01DX009 (ip), vehicle: saline sonified) is reported as 102 % of control, the T/C (dose: 7.0 mg/kg/injection, schedule: Q01DX009 (ip), vehicle: saline sonified) is reported as 116 % of control and 120 % of control and the T/C (dose: 10.7 mg/kg/injection, schedule: Q01DX009 (ip), vehicle: saline sonified) is reported as 117 % of control. For the same molecule, the T/C (dose: 11.0 mg/kg/injection, schedule: Q01DX009 (ip), vehicle: saline sonified) was 120 % of control, the T/C (dose: 15.0 mg/kg/injection, schedule: Q04DX003 (ip), vehicle: Klucel (hydroxypropylcellulose) (HPC)) was 108 % of control and the T/C (dose: 21.0 mg/kg/injection, schedule: Q04DX003 (ip), vehicle: Klucel (hydroxypropylcellulose) (HPC)) was 107 % of control. The T/C (dose: 24.0 mg/kg/injection, schedule: Q01DX009 (ip), vehicle: saline sonified) was 114 % of control, the T/C (dose: 33.0 mg/kg/injection, schedule: Q04DX003 (ip), vehicle: Klucel (hydroxypropylcellulose) (HPC)) was 105 % of control and the T/C (dose: 48.0 mg/kg/injection, schedule: Q04DX003 (ip), vehicle: Klucel (hydroxypropylcellulose) (HPC)) was 111 % of control.

O=C(ONC1CCC(CC2CCCCC2)CC1)c1ccccc1 (stereo unspecified) was tested, and the T/C (dose: 50.0 mg/kg/injection, schedule: Q01DX009 (ip), vehicle: Klucel (hydroxypropylcellulose) (HPC)) was 102 % of control, the T/C [1] was 97 % of control and the T/C (dose: 100.0 mg/kg/injection, schedule: Q04DX003 (ip), vehicle: Klucel (hydroxypropylcellulose) (HPC)) was 97 % of control. The T/C (dose: 200.0 mg/kg/injection, schedule: Q04DX003 (ip), vehicle: Klucel (hydroxypropylcellulose) (HPC)) was 89 % of control.

For CCC(=O)OC1(c2ccccc2)CCN(C)CC1C (stereo unspecified), the T/C (dose: 5.0 mg/kg/injection, schedule: Q01DX001 (ip), vehicle: saline) was 105 % of control, the T/C (dose: 10.0 mg/kg/injection, schedule: Q01DX001 (ip), vehicle: saline) was 105 % of control and the T/C (dose: 20.0 mg/kg/injection, schedule: Q01DX001 (ip), vehicle: saline) was 102 % of control. The T/C (dose: 40.0 mg/kg/injection, schedule: Q01DX001 (ip), vehicle: saline) was 103 % of control and the T/C (dose: 80.0 mg/kg/injection, schedule: Q01DX001 (ip), vehicle: saline) was 102 % of control.

With Nc1nc(=O)n(CC(=O)c2cccs2)cc1F the T/C (dose: 25.0 mg/kg/injection, schedule: Q01DX009 (ip), vehicle: saline with Tween-80) was 96 % of control, the T/C [2] was 98 % of control and 87 % of control and the T/C [3] was 96 % of control and 98 % of control. The T/C [4] was 97 % of control, the T/C [5] was 103 % of control and the T/C [6] was 97 % of control.

In the case of CC(C)CC(=O)CC(O)C(Cl)(Cl)Cl (stereo unspecified), the T/C (dose: 50.0 mg/kg/injection, schedule: Q04DX002 (ip), vehicle: Klucel (hydroxypropylcellulose) (HPC)) is reported as 104 % of control, the T/C (dose: 100.0 mg/kg/injection, schedule: Q04DX002 (ip), vehicle: Klucel (hydroxypropylcellulose) (HPC)) is reported as 93 % of control and the T/C (dose: 200.0 mg/kg/injection, schedule: Q04DX002 (ip), vehicle: Klucel (hydroxypropylcellulose) (HPC)) is reported as 93 % of control. For the same molecule, the T/C (dose: 400.0 mg/kg/injection, schedule: Q04DX002 (ip), vehicle: Klucel (hydroxypropylcellulose) (HPC)) was 101 % of control.

CC(=O)c1ccc(OC(=O)Oc2ccc(C(C)=O)cc2)cc1 was tested, and the T/C (dose: 100.0 mg/kg/injection, schedule: Q01DX001 (ip), vehicle: carboxymethylcellulose (CMC)) was 93 % of control, the T/C (dose: 200.0 mg/kg/injection, schedule: Q01DX001 (ip), vehicle: carboxymethylcellulose (CMC)) was 101 % of control and the T/C (dose: 400.0 mg/kg/injection, schedule: Q01DX001 (ip), vehicle: carboxymethylcellulose (CMC)) was 93 % of control.

In the case of N#CCCP(=O)(CCC#N)CCC#N, the T/C (dose: 50.0 mg/kg/injection, schedule: Q04DX003 (ip), vehicle: saline) is reported as 98 % of control, the T/C [7] is reported as 98 % of control and the T/C [8] is reported as 101 % of control. The T/C [9] was 101 % of control.

With CCOC(C)C1C2CCCC(C)C21 (stereo unspecified) the T/C [7] was 102 % of control, the T/C [8] was 96 % of control and the T/C [9] was 93 % of control.

In the case of Cc1cc(O)cc(=O)[nH]1, the T/C [10] is reported as 97 % of control and the T/C [11] is reported as 100 % of control.

With [O-][n+]1c2ccccc2c(Cl)c2ccc3ccccc3c21 the T/C (dose: 100.0 mg/kg/injection, schedule: Q04DX002 (ip), vehicle: saline with Tween-80) was 93 % of control, the T/C (dose: 200.0 mg/kg/injection, schedule: Q04DX002 (ip), vehicle: saline with Tween-80) was 90 % of control and the T/C (dose: 400.0 mg/kg/injection, schedule: Q04DX002 (ip), vehicle: saline with Tween-80) was 90 % of control.

With CN1CCC(OC(N)=O)CC1 the T/C (dose: 100.0 mg/kg/injection, schedule: Q01DX009 (ip), vehicle: saline) was 99 % of control, the T/C [7] was 103 % of control and the T/C (dose: 200.0 mg/kg/injection, schedule: Q01DX009 (ip), vehicle: saline) was 104 % of control. The T/C [8] was 103 % of control, the T/C (dose: 400.0 mg/kg/injection, schedule: Q01DX009 (ip), vehicle: saline) was 96 % of control and the T/C [9] was 101 % of control.

Nc1nc(N)c(-c2ccc(Cl)cc2)c(COc2cccc(NC(=O)c3ccc(NC(=O)CBr)cc3)c2)n1 was tested, and the T/C [10] was 91 % of control, the T/C [11] was 91 % of control and the T/C [12] was 104 % of control.

In the case of O=C(CCCC(=O)N/N=C/c1c[nH]c2ccc(Br)cc12)N/N=C\c1c[nH]c2ccc(Br)cc12, the T/C (dose: 50.0 mg/kg/injection, schedule: Q01DX001 (ip), vehicle: saline) is reported as 105 % of control, the T/C [10] is reported as 102 % of control and the T/C [11] is reported as 107 % of control. For the same molecule, the T/C [12] was 96 % of control.

With CCC1CN1CC1CO1 (stereo unspecified) the T/C (dose: 4.0 mg/kg/injection, schedule: Q01DX Z (ip), vehicle: saline) was 101 % of control, the T/C (dose: 7.0 mg/kg/injection, schedule: Q01DX Z (ip), vehicle: saline) was 106 % of control and the T/C (dose: 10.0 mg/kg/injection, schedule: Q01DX Z (ip), vehicle: saline) was 95 % of control. The T/C (dose: 33.0 mg/kg/injection, schedule: Q01DX Z (ip), vehicle: saline) was 158 % of control and 196 % of control, the T/C (dose: 50.0 mg/kg/injection, schedule: Q01DX Z (ip), vehicle: saline) was 123 % of control and 183 % of control and 218 % of control and the T/C (dose: 75.0 mg/kg/injection, schedule: Q01DX Z (ip), vehicle: saline) was 120 % of control.

With CCN1C(=O)CN=C(c2ccccn2)c2cc(Cl)ccc21 the T/C (dose: 100.0 mg/kg/injection, schedule: Q01DX001 (ip), vehicle: Klucel (hydroxypropylcellulose) (HPC)) was 95 % of control, the T/C (dose: 200.0 mg/kg/injection, schedule: Q01DX001 (ip), vehicle: Klucel (hydroxypropylcellulose) (HPC)) was 101 % of control and the T/C (dose: 400.0 mg/kg/injection, schedule: Q01DX001 (ip), vehicle: Klucel (hydroxypropylcellulose) (HPC)) was 96 % of control.

N#CC1(c2ccccc2)CC(C(=O)c2ccccc2)C(O)(c2ccccc2)CC1c1ccccc1 (stereo unspecified) was tested, and the T/C [2] was 101 % of control, the T/C [3] was 108 % of control and the T/C [13] was 101 % of control.

With CNC(=S)N/N=C(\c1ccccc1)c1ccccn1 the T/C (dose: 100.0 mg/kg/injection, schedule: Q01DX001 (ip), vehicle: saline with Tween-80) was 95 % of control, the T/C [3] was 100 % of control and the T/C [4] was 104 % of control. For the same molecule, the T/C (dose: 200.0 mg/kg/injection, schedule: Q01DX001 (ip), vehicle: saline with Tween-80) was 106 % of control, the T/C [13] was 102 % of control and the T/C [5] was 95 % of control. For the same molecule, the T/C (dose: 400.0 mg/kg/injection, schedule: Q01DX001 (ip), vehicle: saline with Tween-80) was 104 % of control, the T/C (dose: 400.0 mg/kg/injection, schedule: Q01DX009 (ip), vehicle: saline with Tween-80) was 102 % of control and the T/C [6] was 98 % of control.

CCOc1c(OC)cc(/C=C/C(=O)NC2CC2)cc1OC was tested, and the T/C (dose: 25.0 mg/kg/injection, schedule: Q01DX009 (ip), vehicle: Klucel (hydroxypropylcellulose) (HPC)) was 88 % of control and the T/C [1] was 101 % of control and 88 % of control.
